Experimental data as given in the SangsterLogP compilation.

assay: method code SF, from DOI: 10.1016/j.ejps.2012.10.019, PMID: 23131797; settings: pH 2.0

SMILES	logD
O=C(/C=C/c1ccc2c(c1)OCO2)Nc1ccc2c(c1)OCO2	3.72
Cc1ccc(C(=O)NCCc2ccc3c(c2)OCCO3)cc1[N+](=O)[O-]	3.28
CCN(C(=O)C(=O)c1cn(CC(=O)N2CCOCC2)c2ccccc12)c1ccccc1	2.05
CC(C)=CC(=O)OCC(=O)Nc1ccc(S(=O)(=O)N(C)C)cc1	2.26

same assay, conditions: pH 5.0

SMILES	logD
CCn1cc(CN(C)C(=O)c2cc3cc(Br)ccc3oc2=O)c(C)n1	3.27
Cc1ccc(-c2cc(C(F)F)n3ncc(C(=O)N4CCSCC4)c3n2)cc1	4.55
COc1cc(C(=O)c2ccc(F)cc2)cc(C(=O)c2ccc(F)cc2)c1	4.89
COC(=O)c1ccc(-n2c(C)cc(C(=O)COc3cccc(-n4cnnn4)c3)c2C)cc1	4.77
CN(Cc1ccccc1)S(=O)(=O)c1ccc(NC(=O)Cc2ccc(F)cc2)cc1	5.14
COCc1cc(OC(=O)N(C)C)nc(SCC(=O)C(C)(C)C)n1	3.33
O=C1c2ccccc2C(=O)N1c1ccccc1C(F)(F)F	3.55
CCOC(=O)c1cnn(C(=O)c2cnn(-c3ccc([N+](=O)[O-])cc3)c2C(F)(F)F)c1N	3.53
Cn1ncc(Cl)c1-c1nc(-c2nonc2N)no1	2.77
FC(F)(F)c1nc(-c2ccc(-c3noc(C(F)(F)F)n3)cc2)no1	6.06
Cc1cccc(C(=O)Nc2ccc(NC(=O)c3ccccc3)c(C)c2)c1	4.14
COc1ccc(NC(=O)c2cc(NC(=O)c3ccccc3)cc(C(=O)Nc3ccc(OC)cc3)c2)cc1	5.59
CCOc1ccc(-n2c(SCC(=O)NC3CC3)nc3sc4c(c3c2=O)CCC4)cc1	4.64
CCOC(=O)CSc1nnnn1-c1cccc2ccccc12	3.8
CCOC(=O)c1[nH]c2c(c1C)C(Cl)=C(C=O)CC2	3.92
COc1cccc(OCCn2c(=O)c3cc4c(=O)n(CCOc5cccc(OC)c5)c(=O)c4cc3c2=O)c1	5.43
Cc1ccc(S(=O)(=O)N(CCO)Cc2ccccc2)cc1	3.69
CCn1cc(-c2nc3c4c(C)c(C)sc4ncn3n2)cn1	3.77
O=C(Cn1cc(C(=O)C(F)(F)F)c2cc(Br)ccc21)N1CCCCCC1	4.62
COc1ccc(C(C)=O)cc1COC(=O)c1cc(Cl)ccc1Cl	4.45

SMILES	logD
O=C(Nc1ccc(OC(F)F)cc1)c1ccc(COc2ccc(I)cc2)o1	5.99
Cc1cc2nsnc2c([N+](=O)[O-])c1C	2.64
COC(=O)c1ccc(OC(=O)c2cc(OC)cc(OC)c2)cc1	4.64
CC(=O)Nc1cccc(C(=O)OCC(=O)c2c(N)n(C)c(=O)n(C)c2=O)c1	3.57
Cc1ccc(N(CCOC(=O)c2ccc(S(=O)(=O)N3CCCCC3)cc2)C2=NS(=O)(=O)c3ccccc32)cc1	5.58
CC1(C)OC(=O)C(=Cc2ccc([N+](=O)[O-])s2)C(=O)O1	3.04
COc1ccc(S(=O)(=O)n2c(=O)n(S(=O)(=O)c3ccc(OC)cc3)c3ccccc32)cc1	5.22
COc1ccc(OCC(=O)N2CCN(C(=O)c3ccco3)CC2)cc1	2.76
N#CCc1nc(-c2ccc3c(c2)OCCCO3)cs1	2.68
COC(=O)c1cccc(NC(=O)CCN2C(=O)c3ccccc3C2=O)c1	3.39
CCc1cc(=O)oc2c(C)c(OCC(=O)OC(C)(C)C)ccc12	4.52
COCCCNC(=O)c1ccccc1C(F)(F)F	2
CSc1nc2c(C#N)c(SC)nn2c(-c2ccc(Cl)cc2)c1C#N	5.51
COc1cccc(-c2cn3c4c(=O)n(C)c(=O)n(C)c4nc3n2-c2cccc(C)c2)c1	4.16
COc1ccc(C(=O)CSc2nnc(-c3ccccc3)o2)cc1	4.15
CN(C)S(=O)(=O)c1ccc(C(=O)OC2CCCCC2)cc1	4.27
CCOc1ccc(NC=C(S(=O)(=O)c2ccc(C)cc2)S(=O)(=O)c2ccc(C)cc2)cc1	5.64
CC(C)OCCCNC(=O)C(=O)NCc1ccc(C(C)C)cc1	4.57
CCCCCCSC1=C(C#N)C(c2cccs2)C(C(=O)Nc2ccccc2OC)=C(C)N1 (stereo not drawn)	6.28
COc1nc(Cl)nc(Nc2ccccc2)n1	2.89

SMILES	logD
COc1ccc(C=O)cc1COc1c(F)c(F)cc(F)c1F	4.24
Nn1c(SCC(=O)Nc2ccccc2-c2ccccc2)nnc1-c1ccc(OC(F)F)cc1	4.85
NC(=O)c1cc(NC(=O)c2cc(C(F)(F)F)cc(C(F)(F)F)c2)cc(C(N)=O)c1	3.87
Cc1ccc(S(=O)(=O)N2CCCN(S(=O)(=O)c3ccc(C)cc3C)CC2)c(C)c1	5.01
O=C(Nc1ccccc1C(F)(F)F)C1CCC1	2.55
CN(C(=O)c1c(F)c(F)c(F)c(F)c1F)C(C)(C)C	3.45
O=[N+]([O-])c1cccc(-c2noc(CC3CCCCC3)n2)c1	5.17
COc1ccc(N2C3=C(C(=O)CC(C)(C)C3)C(c3ccc4c(c3)OCO4)C3=C2CC(C)(C)CC3=O)cc1	5.72
CCOC(=O)c1ccc(NCc2c(C)[nH]c(C(=O)OCC)c2C)cc1	5.09
CCc1c(C#N)c(SCC(=O)N2CCc3cc(OC)c(OC)cc3C2)nc2c1C(=O)CC(C)(C)C2	4.89
O=C(NC1CC1)c1ccc(COc2c(F)c(F)cc(F)c2F)o1	3.54
Cc1c(C(=O)Nc2ccc(S(=O)(=O)N3CCCCCC3)cc2)oc2ccc(F)cc12	5.68
O=C(Cn1c(=O)n(-c2ccccc2)c(=O)n1CC(=O)N1CCCCC1)N1CCCCC1	2.78
N#Cc1nc2c(S(=O)(=O)c3ccccc3)c(N)n(Cc3ccc(F)cc3)c2nc1C#N	4.86
COc1c(Cl)ccc(Cl)c1C(=O)Nc1ccc(C)cc1C	4
c1ccc(-n2nnnc2OCCOc2nnnn2-c2ccccc2)cc1	3.72
CC(C)NC(=O)COC(=O)c1ccc(S(=O)(=O)N2CCCCCC2)cc1	3.78
COC(=O)c1cnn2c(C(F)(F)F)cc(-c3cc(OC)c(OC)c(OC)c3)nc12	4.08

same assay, conditions: pH 6.5

SMILES	logD
CCCn1c(SCc2cc(=O)n3cc(Br)ccc3n2)nnc1-c1cccc(C)c1	4.43
O=C(COc1nnc(SCC(=O)c2ccc3c(c2)OCCO3)n1C1Cc2ccccc2C1)c1ccc(F)cc1	5.47
O=C(CSc1nnc2c3ccccc3n(Cc3ccccc3)c2n1)OCN1C(=O)c2ccccc2C1=O	4.51
O=C(Nc1ccc(N2CCN(C(=O)c3ccco3)CC2)c(Cl)c1)c1c(F)c(F)c(F)c(F)c1F	5.85
COc1cc(C(=O)COC(=O)CCCOc2ccc(Cl)cc2Cl)cc(OC)c1OC	5.59
CC(=O)Nc1nc2cc3sc(NC(C)=O)nc3cc2s1	3.13
COc1cc(C=O)ccc1OS(=O)(=O)c1ccc(F)c(F)c1	3.68
O=C(c1cccc([N+](=O)[O-])c1)N(Cc1ccccc1F)N1C(=O)c2ccccc2C1=O	4.47
N#CC1=C(N)Oc2c(oc(CO)cc2=O)C1c1ccccc1OCc1ccccc1Cl (stereo not drawn)	4.34
N#CCOC(=O)c1ccccc1SCC(=O)N1CCCC1	2.57
N#Cc1nc(N2CCCC2)nc(N(c2ccccc2)c2ccccc2)n1	5.38

same assay, conditions: pH 7.0

SMILES	logD
Cc1ccc(C(=O)N2C(=O)c3cccc(N)c3C2=O)cc1NC(=O)c1ccco1	3.55

same assay, conditions: pH 7.3

SMILES	logD
COc1cccc(Cn2cc(N)cn2)c1	1.55
Nn1c(COc2ccccc2)nnc1SC(F)F	1.85
CCOC(=O)C1CCN(S(=O)(=O)c2nc3nc(C)cc(C)n3n2)CC1	2.71
O=C(Nc1cccc(-c2cnc3ccccc3n2)c1)c1cccs1	4.34
Cc1ccnc(N(C(=O)c2cc3c(s2)CCCC3)C(=O)c2cc3c(s2)CCCC3)c1	5.76
CCOC(=O)c1c(NC(=O)CSc2nnc(C)s2)sc2c1CCCCC2	5.03
COc1cccc(-c2ccc3c(N)c(C(=O)Nc4ccc(F)c(F)c4)sc3n2)c1	5.86
C=CCn1c(SCC(=O)NCc2ccc(C(=O)OCC)cc2)nc2sc(C)c(C)c2c1=O	4.83
COc1cccc(OC)c1C(=O)Nc1ccc(N2CCN(C(=O)c3ccccc3C)CC2)cc1	4.16
Cc1cc2ccccc2c(=O)n1CC(=O)NCC(=O)N1CCN(c2cccc(Cl)c2)CC1	4.45

same assay, conditions: pH 8.0

SMILES	logD
CSc1ncccc1C(=O)OCC(=O)Nc1c(C)n(C)n(-c2ccccc2)c1=O	3.63
Cc1cc(SCC(=O)NCc2ccc3c(c2)OCO3)nc2ccccc12	4.15

same assay, conditions: pH 10.0

SMILES	logD
CCCSc1nc2c(c(=O)n1-c1ccc(Br)cc1)SCC2	4.61
COc1ccc(C(=O)Cn2c(N3CCCCCC3)nc3c2c(=O)n(C)c(=O)n3C)cc1	4.42
Cc1cc(C(F)(F)F)n2nc(-c3nnc(-c4cccc(C(F)(F)F)c4)o3)cc2n1	4.92
c1nc(NC2CCCC2)c2c3c(sc2n1)CCCC3	4.17

same assay, conditions: pH 10.5

SMILES	logD
Cc1cc(C)n2nc(SCC(=O)NCCNC(=O)CSc3nc4nc(C)cc(C)n4n3)nc2n1	0.82
CCOC(=O)c1sc(NCCNc2nc(C)c(C(=O)OCC)s2)nc1C	4.66
Cc1nc(N(C)C)c2sc(=S)n(-c3ccccc3)c2n1	3.62
Cc1c(C(=O)N2CCN(S(=O)(=O)c3ccccc3)CC2)sc2nc3n(c(=O)c12)CCCCC3	4.13
CCCNC(=O)N1CCN(C(=O)NCCC)CC1	1.04
COCCCNC(=O)c1cc(Br)c(C)c(C)c1C	2.93
Cc1ccc(S(=O)(=O)N(C)c2ccc(OCC(=O)N3CCN(c4ncccn4)CC3)cc2)cc1	4.46
CCOC(=O)N1CCN(c2nc(C(F)(F)F)nc3c(C)cc(C)cc23)CC1	5.92
CC1=NN(c2ccccc2)C(=O)C1Sc1nc(N)c(C#N)c(-c2ccc(C)cc2)c1C#N (stereo not drawn)	4.99
COC(=O)COc1cc2occ(-c3csc(C)n3)c(=O)c2cc1C	3.9
Nc1nc(SCC(=O)N(CCO)CCO)nc2sc3c(c12)CCCC3	3.2
Cc1cc(C)n2c(SCc3ccc(C(=O)c4ccccc4)cc3)nnc2n1	4.43
Nc1cccc2c1C(=O)N(C(=O)c1cc(-c3ccccc3Cl)nc3ccccc13)C2=O	4.63
COC(=O)CCNc1nc(-c2cccnc2)nc2sc3c(c12)CCCC3	4.69
Cc1nc2c(N)nnc(N)c2nc1C	1.14
O=C(CSc1nnc(-c2ccccc2)n1-c1ccccc1)N1CCN(C(=O)c2ccccc2)CC1	4.64
COCCn1c(C)cc(C(=O)CSc2nnc3[nH]c4ccccc4n23)c1C	3.45
COc1ccc(S(=O)(=O)N2CCCCCC2)cc1C(=O)OCC(=O)c1c(N)n(C)c(=O)n(C)c1=O	4.59
